Measurements from patent publication US10420815B2, “Combinational therapy for synergistic inhibition of gram-positive and gram-negative bacteria” (priority 2015, dated 2019).
Entries after “also recorded” stand apart in the source; their conditions may differ. Read-outs that look alike come from different tables or passages of the source.

Tests used:
MRSA USA300 (BAA-1680) [1] = test: microbe, parasite or virus in culture; assay type: cell-based, Staphylococcus aureus; set-up: MBC of bacitracin in combination with OG / fold reduction in bacitracin MBC: dose or concentration left out as unconfirmed; settings: for MBC of bacitracin in combination with alkyl gallate / fold decrease in bacitracin MBC: 5 μg ml^−1 alkyl gallate; for fold decrease in bacitracin MBC: versus bacitracin MBC 200 U; for bactericidal activity in combination with bacitracin: FIG. 2; for MBC / MIC: agent alone
From the text: (§1) MRSA (ATCC 33593), MSSA (ATCC 29213), and MRSA USA300 (BAA-1680) strains were purchased from the American Type Culture Collection (ATCC; Manassas, Va.). Eight clinical isolates of MRSA were obtained from the Culture Collection of Antimicrobial Resistant Microbes, Korea National Research Resource Center (KNRRC). Salmonella enterica Typhimurium LT2 was purchased from ATCC, and Escherichia coli O157:H7 is a kind gift from Dr. Sangryeol Ryu (Seoul National University, South Korea). All S. aureus strains were maintained in Trypticase Soy (TS) medium, and E. coli O157:H7 and Salmonella were routinely grown aerobically on Luria-Bertani (LB) media at 37° C. For measuring growth kinetics, an overnight culture of MRSA in Mueller-Hinton (MH) broth was diluted 100-fold in fresh MH broth and cultured until early exponential phase. The culture (200 μl) was transferred to each well of a sterile 96-well plate and incubated at 37° C. with bacitracin alone, alkyl gallate alone, and combination of bacitracin/alkyl gallates at various concentrations. The optical density at 600 nm (OD600) was measured every hour with FLUOstar® Omega (BMG Labtech, Germany).
(§2) Broth micro dilution assays were performed to determine the minimum inhibitory concentrations (MIC) accordance to the M7-A7 protocol of the Clinical and Laboratory Standards Institute (CLSI) guidelines^28. The susceptibility test was carried out with an initial bacterial inoculum of 1.5×10^5 CFU ml^−1. Alkyl gallates and bacitracin were serially diluted in a polystyrene 96 well plate and the plate was incubated at 37° C. for 24 h. Minimum bactericidal concentration (MBC) was determined by spotting 10 μl of cultures from MIC tests onto MH agar and incubated aerobically at 37° C.

MRSA USA300 (BAA-1680) [2] = test: Growth kinetics (OD600) with bacitracin, alkyl gallates and combinations; assay type: cell-based, Staphylococcus aureus; settings: bacitracin 0.001 U to 100 U
From the text: as §1

MRSA USA300 = test: Biofilm assay (crystal violet); assay type: cell-based, Staphylococcus aureus; settings: LG at different concentrations plus 10^−4 U bacitracin; 18 h; listed as LG
Procedure: Biofilm assays were performed as described previously^30. Briefly, overnight culture of MRSA was diluted 1:100 in TS broth and was grown in a 96-well microtiter plate in the presence or absence (a negative control) of combinations of bacitracin and lauryl gallate at different concentrations. After aerobic incubation at 37° C. for 18 h, biofilms were washed and stained with crystal violet. After washing unbound crystal violet, the absorbance at 630 nm was measured with FLUOstar Omega® (BMG Labtech).

MRSA 3095 = test: microbe, parasite or virus in culture; assay type: cell-based, Staphylococcus aureus; settings: Staphylococcus aureus
From the text: as §1, §2

MRSA 3795 = test: microbe, parasite or virus in culture; assay type: cell-based, Staphylococcus aureus; settings: Staphylococcus aureus
From the text: as §1, §2

MRSA 3799 = test: microbe, parasite or virus in culture; assay type: cell-based, Staphylococcus aureus; settings: for MIC: Staphylococcus aureus
From the text: as §1, §2

MRSA 3823 = test: microbe, parasite or virus in culture; assay type: cell-based, Staphylococcus aureus; settings: Staphylococcus aureus
From the text: as §1, §2

MRSA 3865 = test: microbe, parasite or virus in culture; assay type: cell-based, Staphylococcus aureus; settings: Staphylococcus aureus
From the text: as §1, §2

MRSA 3876 = test: microbe, parasite or virus in culture; assay type: cell-based, Staphylococcus aureus; settings: Staphylococcus aureus
From the text: as §1, §2

MRSA 3903 = test: microbe, parasite or virus in culture; assay type: cell-based, Staphylococcus aureus; settings: for MIC: Staphylococcus aureus
From the text: as §1, §2

MRSA 3A585 = test: microbe, parasite or virus in culture; assay type: cell-based, Staphylococcus aureus; settings: Staphylococcus aureus
From the text: as §1, §2

MRSA (ATCC 33593) = test: microbe, parasite or virus in culture; assay type: cell-based, Staphylococcus aureus; settings: MRSA; for MIC: antioxidant alone
From the text: as §1, §2
(§3) MICs were determined with MRSA and methicillin-sensitive S. aureus (MSSA) using a broth dilution method as described above.
(§4) MRSA and MSSA were cultured overnight with antioxidants (0.5 μg/ml) and bacitracin at various concentrations and 10 μL of the culture was spotted on MH agar plates and incubated aerobically at 37° C. to observe the bacterial viability. The results in FIGS. 9A, 9B, 9C and 9D (photographs of plates) show the Minimal Bactericidal Concentrations (MBCs) for indicated antioxidants. Bacitracin killed MRSA and MSSA at concentrations greater than or equal to 2 μg/mi.

MSSA (ATCC 29213) = test: MIC (broth dilution) and MBC (spotting) of phenolic antioxidants and bacitracin; assay type: cell-based, Staphylococcus aureus; settings: for MIC: antioxidant alone
From the text: as §1, §2, §3, §4

[3] = tested on: MRSA (normal MRSA strain, not USA300); test: MRSA growth (optical density) with bacitracin and phenolic antioxidants; assay type: cell-based, Staphylococcus aureus
From the text: as §1
MRSA were grown with bacitracin (0.002 μg/mL) with antioxidant (as shown) at 0.5 μg/mL.
FIG. 7A is growth with no added bacitracin or lauryl gallate.
The optical density of MRSA was measured after 18 h culture with bacitracin (0.002 μg/ml) and antioxidants (as indicated at 0.5 μg/ml). Also measured were controls with no additions, with bacitracin alone and with antioxidant alone. FIGS. 8A, 8B, 8C and 8D are graphs illustrating the results.

Escherichia coli O157:H7 = test: microbe, parasite or virus in culture; assay type: cell-based; settings: for MBC / MIC: Escherichia coli
From the text: as §1, §2
(§5) MIC and MBC were measured as described above. MIC and MBC data are shown in Table 5 for both the Salmonella and the E. coli strain tested. The tested strains were highly resistant to bacitracin.

[4] = tested on: Salmonella enterica Typhimurium LT2; test: MIC and MBC, alone and bacitracin/alkyl gallate combinations; assay type: cell-based; settings: for MBC / MIC: Salmonella enterica, S. Typhimurium, agent alone
From the text: as §1, §2, §5

USA300 = test: Bacterial membrane permeability (propidium iodide fluorescence); assay type: cell-based, Staphylococcus aureus
Procedure: Membrane permeability was determined by measuring fluorescence after exposure of USA300 to propidium iodide as described previously^29. Briefly, USA300 was grown in MH broth to the exponential phase and then diluted to OD600≈0.25. Propidium iodide was mixed with bacteria to a final concentration of 10 μM. […] Fluorescence was monitored at excitation and emission wavelengths of 585 nm and 620 nm, respectively, for 1 h using FLUOstar Omega® (BMG Labtech, Germany). The membrane permeability was calculated by subtracting fluorescence intensity of controls without treatment with phenolic compounds from that of treated samples. EDTA (1 mM) was used as a positive control.

[5] = tested on: human clinical isolates of MRSA with multidrug- and hyper-resistance; test: Bactericidal activity of OG plus bacitracin against clinical isolates; assay type: cell-based, Staphylococcus aureus
From the text: as §1, with “The culture (200 μl) was transferred to each well of a sterile 96-well plate and incubated at 37° C. with bacitracin alone, alkyl gallate alone, and combination of bacitracin/alkyl gallates at various concentrations.” left out
Broth micro dilution assays were performed to determine the minimum inhibitory concentrations (MIC) accordance to the M7-A7 protocol of the Clinical and Laboratory Standards Institute (CLSI) guidelines^28. […] Minimum bactericidal concentration (MBC) was determined by spotting 10 μl of cultures from MIC tests onto MH agar and incubated aerobically at 37° C. […]

[6] = antioxidant 0.5 μg/ml, compared to bacitracin alone
[7] = Staphylococcus aureus, read-out: MIC

`CCCCCCCCCCCCOC(=O)c1cc(O)c(O)c(O)c1` [Lauryl gallate, lauryl gallate] was tested, and the “MBC of bacitracin in combination with alkyl gallate” value (MRSA USA300 (BAA-1680) [1]) was 10^−1 U, the “fold decrease in bacitracin MBC” value (MRSA USA300 (BAA-1680) [1]) was 2,000 fold and the “bactericidal activity in combination with bacitracin” value (MRSA USA300 (BAA-1680) [1]) was “synergistic antimicrobial activity”. The MBC (MRSA USA300 (BAA-1680) [1]) was 64 µg/mL, the MIC (MRSA USA300 (BAA-1680) [1]) was 32 µg/mL and the “growth inhibition by bacitracin in combination with alkyl gallate” value (MRSA USA300 (BAA-1680) [2]) was “significant growth inhibition”. The biofilm formation (MRSA USA300) was “substantial reduction in the level of biofilm formation; also recorded: significant anti-biofilm effects”, the MIC (MRSA 3095; MRSA 3095 (human/skin), read-out: MIC) was 64 µg/mL and the MIC (MRSA 3795; MRSA 3795 (human/nose), read-out: MIC) was 64 µg/mL. It also gave an MIC (MRSA 3799; MRSA 3799 (human/nose), read-out: MIC) of 32 µg/mL, an MIC (MRSA 3823; MRSA 3823 (human/nose), read-out: MIC) of 64 µg/mL and an MIC (MRSA 3865; MRSA 3865 (human/skin), read-out: MIC) of 64 µg/mL. The MIC (MRSA 3876; MRSA 3876 (human/skin), read-out: MIC) was 64 µg/mL, the MIC (MRSA 3903; MRSA 3903 (human/skin), read-out: MIC) was 64 µg/mL and the MIC (MRSA 3A585; MRSA 3A585 (human/blood), read-out: MIC) was 64 µg/mL. For the same compound, the “fold decrease of bacitracin MBC by antioxidant” value (MRSA (ATCC 33593); [6]) was 512 fold, the MIC (MRSA (ATCC 33593)) was 128 µg/mL and the MIC (MRSA (ATCC 33593); [7]) was 64 µg/mL. The MIC (MSSA (ATCC 29213); [7]) was 64 µg/mL, the “fold decrease of bacitracin MBC by antioxidant” value (MSSA (ATCC 29213); [6]) was > 1,000 fold and the MIC (MSSA (ATCC 29213)) was 128 µg/mL. For the same compound, the “growth of MRSA with bacitracin plus antioxidant” value ([3]; bacitracin 0.002 μg/mL, antioxidant 0.5 μg/mL, FIG. 6) was “significantly inhibited the growth of MRSA”, the “optical density of MRSA after 18 h culture: inhibition of growth in combination with bacitracin” value ([3]; bacitracin 0.002 μg/ml (ca. 0.0002 U), antioxidant 0.5 μg/ml, 18 h, FIG. 8) was “significantly inhibited MRSA” and the “concentration of lauryl gallate alone that inhibited MRSA growth” value ([3]; lauryl gallate 0.5 μg/mL to 256 μg/mL, FIG. 7C) was 256 µg/mL. The “MRSA growth inhibition by lauryl gallate in combination with bacitracin” value ([3]; lauryl gallate 0.5 μg/ml, bacitracin 0.0019 μg/mL to 1 μg/mL, FIG. 7D) was “synergistically inhibited MRSA growth”, the “synergistic effect with bacitracin” value (Escherichia coli O157:H7; E. coli O157:H7, FIG. 10) was “more moderate synergistic effects” and the MBC (Escherichia coli O157:H7) was 1020 µg/mL. For the same compound, the MIC (Escherichia coli O157:H7) was 512 µg/mL, the MBC [4] was > 1020 µg/mL and the MIC [4] was > 1020 µg/mL. For the same compound, the “synergistic effect with bacitracin” value ([4]; Salmonella, FIG. 10) was “more moderate synergistic effects”.

`CCCCCCCCOC(=O)c1cc(O)c(O)c(O)c1` [Octyl gallate (OG), octyl gallate] was tested, and the “MBC of bacitracin in combination with alkyl gallate” value (MRSA USA300 (BAA-1680) [1]) was 10^−3 U, the “fold decrease in bacitracin MBC” value (MRSA USA300 (BAA-1680) [1]) was 200,000 fold and the “bactericidal activity in combination with bacitracin” value (MRSA USA300 (BAA-1680) [1]) was “Most significant bactericidal activity”. The “MBC of bacitracin in combination with OG” value (MRSA USA300 (BAA-1680) [1]; OG) was 10^−4 U, the “fold reduction in bacitracin MBC” value (MRSA USA300 (BAA-1680) [1]; OG) was 2,000,000 fold and the MBC (MRSA USA300 (BAA-1680) [1]) was 64 µg/mL. The MIC (MRSA USA300 (BAA-1680) [1]) was 32 µg/mL, the “growth inhibition by bacitracin in combination with alkyl gallate” value (MRSA USA300 (BAA-1680) [2]) was “completely inhibited the growth of USA300” and the “membrane permeability, OG in the presence of bacitracin” value (USA300; OG plus bacitracin) was “more significantly increased membrane permeability than OG treatment without bacitracin; also recorded: significantly altered membrane permeability”. The membrane permeability (USA300; agent alone, sub-MIC levels, EDTA 1 mM) was “permeabilized the membrane in a concentration-dependent manner; also recorded: increased the membrane permeability”, the MIC (MRSA 3095; MRSA) was 16 µg/mL and the MIC (MRSA 3795; MRSA) was 16 µg/mL. For the same compound, the “MBC of bacitracin with OG” value (MRSA 3799; MRSA 3799, 5 μg ml^−1 OG) was 10^−2 U, the MIC (MRSA 3799; MRSA) was 16 µg/mL and the MIC (MRSA 3823; MRSA) was 16 µg/mL. For the same compound, the MIC (MRSA 3865; MRSA) was 16 µg/mL, the MIC (MRSA 3876; MRSA) was 16 µg/mL and the “MBC of bacitracin with OG” value (MRSA 3903; MRSA 3903, 5 μg ml^−1 OG) was 10^−2 U. For the same compound, the MIC (MRSA 3903; MRSA) was 16 µg/mL, the MIC (MRSA 3A585; MRSA) was 16 µg/mL and the “killing of clinical MRSA isolates by OG plus bacitracin” value ([5]; FIG. 3) was “successfully killed all the tested clinical MRSA isolates; also recorded: effectively killed clinical MRSA isolates”. For the same compound, the “bacitracin level at which most strains were killed with OG” value ([5]; most clinical MRSA strains, 5 μg ml^−1 OG) was 10^−3 U, the “fold change in bacitracin MBC” value (Escherichia coli O157:H7; E. coli O157:H7, 5 μg ml^−1 OG) was > 1,000,000 fold and the MBC (Escherichia coli O157:H7) was 512 µg/mL. The MIC (Escherichia coli O157:H7) was 256 µg/mL, the MBC [4] was 512 µg/mL and the MIC [4] was 256 µg/mL. For the same compound, the “fold change in bacitracin MBC” value ([4]; Salmonella, 5 μg ml^−1 OG) was > 1,000,000 fold.
